Data published in the supplement of paper PMC10307832.

What was measured:
Experiment in all cases: relative viability (nuclei count vs DMSO), 5 days (fraction); higher = more cells survive
Bortezomib + Pictilisib = compound: CC(C)C[C@H](NC(=O)[C@H](Cc1ccccc1)NC(=O)c1cnccn1)B(O)O [Bortezomib] + CS(=O)(=O)N1CCN(Cc2cc3nc(-c4cccc5[nH]ncc45)nc(N4CCOCC4)c3s2)CC1 [Pictilisib] (partner 1 µM)
Method in brief: (§1)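 Relative viability divides the nuclei count in treated wells by that in vehicle wells. Lung cancer cell lines were seeded in 1536-well plates, dosed by pin tool the next day, and fixed and stained after 5 days in one step with final 0.05% Triton X-100, 1% formaldehyde and 1 ug/ml Hoechst. Dosing was a single drug or a fixed anchor-drug dose plus five library-drug doses (not always all listed) in √10 steps, and values are medians of duplicate plates imaged at 4×.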

[1] = compound: CC1=CC(=NN1)NC2=CC(=NC(=N2)/C=C/C3=CC=CC=C3)N4CCN(CC4)C + Cc1nc(Nc2ncc(C(=O)Nc3c(C)cccc3Cl)s2)cc(N2CCN(CCO)CC2)n1 [Dasatinib] (partner 0.075 µM)
Method in brief: as §1

Obatoclax + Crizotinib = compound: COC1=CC(c2cc3ccccc3[nH]2)=N/C1=C\c1[nH]c(C)cc1C [Obatoclax] + C[C@@H](Oc1cc(-c2cnn(C3CCNCC3)c2)cnc1N)c1c(Cl)ccc(F)c1Cl [Crizotinib] (partner 1 µM)
Method in brief: as §1

Obatoclax + Tozasertib = compound: COC1=CC(c2cc3ccccc3[nH]2)=N/C1=C\c1[nH]c(C)cc1C [Obatoclax] + Cc1cc(Nc2cc(N3CCN(C)CC3)nc(Sc3ccc(NC(=O)C4CC4)cc3)n2)n[nH]1 [Tozasertib] (partner 0.1 µM)
Method in brief: as §1

Cell Line | relative viability (Bortezomib + Pictilisib; first compound 0.0002 µM) | relative viability (Bortezomib + Pictilisib; first compound 0.000632 µM) | relative viability (Bortezomib + Pictilisib; first compound 0.002 µM) | relative viability (Bortezomib + Pictilisib; first compound 0.006325 µM) | relative viability (Bortezomib + Pictilisib; first compound 0.02 µM) | relative viability ([1]; first compound 0.08 µM) | relative viability ([1]; first compound 0.253 µM) | relative viability ([1]; first compound 0.8 µM) | relative viability ([1]; first compound 2.53 µM) | relative viability ([1]; first compound 8 µM) | relative viability (Obatoclax + Crizotinib; first compound 0.01 µM) | relative viability (Obatoclax + Crizotinib; first compound 0.03162 µM) | relative viability (Obatoclax + Crizotinib; first compound 0.1 µM) | relative viability (Obatoclax + Crizotinib; first compound 0.3162 µM) | relative viability (Obatoclax + Crizotinib; first compound 1 µM) | relative viability (Obatoclax + Tozasertib; first compound 0.01 µM) | relative viability (Obatoclax + Tozasertib; first compound 0.03162 µM) | relative viability (Obatoclax + Tozasertib; first compound 0.1 µM) | relative viability (Obatoclax + Tozasertib; first compound 0.3162 µM) | relative viability (Obatoclax + Tozasertib; first compound 1 µM)
201T | 0.677 | 0.707 | 0.698 | 0.684 | 0.541 | 0.586 | 0.546 | 0.541 | 0.435 | 0.208 | 1.01 | 1.03 | 1.04 | 0.996 | 1.06 | 0.896 | 0.94 | 0.93 | 0.876 | 1.04
A549 | 0.507 | 0.531 | 0.468 | 0.049 | 0.0452 | – | – | – | – | – | 0.75 | 0.799 | 0.752 | 0.664 | 0.0778 | – | – | – | – | –
A-427 | 0.673 | 0.626 | 0.771 | 0.703 | 0.175 | 0.789 | 0.579 | 0.631 | 0.156 | 0.0981 | 0.958 | 0.792 | 0.802 | 0.999 | 0.968 | 0.164 | 0.24 | 0.243 | 0.212 | 0.191
ABC-1 | 0.285 | 0.372 | 0.292 | 0.24 | 0.258 | 0.496 | 0.692 | 0.522 | 0.207 | 0.145 | 1.2 | 1.18 | 1.6 | 1.06 | 0.723 | 0.181 | 0.17 | 0.177 | 0.209 | 0.223
BEN | 0.542 | 0.557 | 0.531 | 0.366 | 0.24 | 0.339 | 0.306 | 0.32 | 0.257 | 0.164 | 0.897 | 0.841 | 0.853 | 0.75 | 0.817 | 0.491 | 0.467 | – | 0.626 | 0.506
CAL-12T | 0.155 | 0.368 | 0.427 | 0.211 | 0.151 | 0.52 | 0.38 | 0.342 | 0.0924 | 0.0804 | 0.511 | 0.797 | 0.492 | 0.382 | 0.105 | 0.389 | 0.326 | 0.36 | 0.153 | 0.0881
COR-L23 | 0.922 | 0.777 | 0.609 | 0.0347 | 0.0399 | 0.423 | 0.445 | 0.493 | 0.143 | 0.0623 | 0.632 | 0.696 | 0.635 | 0.212 | 0.174 | 0.233 | 0.182 | 0.217 | 0.111 | 0.108
COR-L 105 | 0.377 | 0.324 | 0.389 | 0.322 | 0.326 | 0.388 | 0.369 | 0.302 | 0.207 | 0.153 | 0.802 | 0.959 | 1 | 0.51 | 0.522 | 0.381 | 0.316 | 0.345 | 0.284 | 0.248
Calu-6 | 0.829 | 0.925 | 0.726 | 0.102 | 0.0777 | – | – | – | – | – | 0.778 | 0.769 | 0.736 | 0.739 | 0.137 | – | – | – | – | –
ChaGo-K-1 | – | – | 0.707 | 0.29 | 0.207 | 0.58 | 0.598 | 0.476 | 0.151 | 0.132 | 1.26 | 0.996 | – | 1.15 | 1.02 | 0.247 | 0.24 | 0.243 | 0.24 | 0.235
EBC-1 | 0.415 | 0.408 | 0.177 | 0.0912 | 0.0987 | – | – | – | – | – | 0.176 | 0.198 | 0.197 | 0.19 | 0.168 | – | – | – | – | –
EKVX | 0.429 | 0.426 | 0.463 | 0.33 | 0.0746 | 0.55 | 0.579 | 0.603 | 0.499 | 0.151 | 0.867 | 0.979 | 0.979 | 0.914 | 0.643 | 0.371 | 0.357 | 0.466 | 0.385 | 0.394
EMC-BAC-2 | 0.523 | 0.504 | 0.544 | 0.476 | 0.158 | 0.308 | 0.268 | 0.298 | 0.202 | 0.0961 | 0.777 | 0.725 | 0.738 | 0.745 | 0.634 | 0.279 | 0.294 | 0.25 | 0.289 | 0.263
EPLC-272H | – | – | 0.3 | 0.242 | 0.15 | 0.344 | 0.37 | 0.37 | 0.15 | 0.217 | 0.873 | 0.682 | 0.803 | 0.941 | 0.946 | 0.255 | 0.229 | 0.343 | 0.326 | 0.545
H3255 | 0.58 | 0.482 | 0.406 | 0.192 | 0.142 | 0.346 | 0.347 | 0.352 | 0.427 | 0.242 | 0.773 | 0.87 | 0.828 | 0.624 | 0.697 | 0.6 | 0.796 | 0.513 | 0.638 | 0.73
HARA | 0.479 | 0.529 | 0.481 | 0.0462 | 0.0659 | 0.26 | 0.236 | 0.221 | 0.183 | 0.0802 | 1.01 | 1.03 | 1.1 | 1.05 | 0.382 | 0.101 | 0.154 | 0.146 | 0.124 | 0.132
HCC-15 | 0.649 | 0.745 | 0.733 | 0.396 | 0.111 | 0.634 | 0.672 | 0.479 | 0.0991 | 0.0639 | 0.768 | 0.821 | 0.741 | 0.776 | 0.689 | 0.371 | 0.35 | 0.463 | 0.456 | 0.287
HCC-44 | 0.581 | 0.575 | 0.554 | 0.464 | 0.133 | – | – | – | – | – | 0.786 | 0.684 | 0.8 | 0.721 | 0.228 | 0.907 | 1.03 | 0.556 | 0.376 | 0.196
